PubChem BioAssay AID1963985 (Molecular Pharmacology Branch, DTP, NCI, 2024)
Blank lines part the entries; values can stand above or below the compound they belong to.

System: 252836-082-R-J2-PDC tumor spheroids, viability
Experiment: Anticancer human tumor 252836-082-R-J2-PDC patient-derived head and neck squamous cell carcinoma cell line growth inhibition [PI3K]
Conditions: spheroids with HUVEC and MSC; for IC50: curve of first compound; for viability, T/C: stronger effect = lower value
How it was run: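 High-throughput combination screen: PI3K inhibitors crossed with targeted small molecules on complex spheroids of tumor cells, HUVEC and MSCs at 37 degrees C, 5% CO2. Top concentration was at or near clinical Cmax (otherwise 10 microM), with half-log decrements.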

[1] = second compound 0.0316 µM, first compound 0.0316 µM
[2] = second compound 0.0316 µM, first compound 0.1 µM
[3] = second compound 0.0316 µM, first compound 0.316 µM
[4] = second compound 0.0316 µM, first compound 1 µM
[5] = second compound 0.0316 µM, first compound 3.16 µM
[6] = second compound 0.0316 µM, first compound 10 µM
[7] = second compound 0.1 µM, first compound 0.0316 µM
[8] = second compound 0.1 µM, first compound 0.1 µM
[9] = second compound 0.1 µM, first compound 0.316 µM
[10] = second compound 0.1 µM, first compound 1 µM
[11] = second compound 0.1 µM, first compound 3.16 µM
[12] = second compound 0.1 µM, first compound 10 µM
[13] = second compound 0.316 µM, first compound 0.0316 µM
[14] = second compound 0.316 µM, first compound 0.1 µM
[15] = second compound 0.316 µM, first compound 0.316 µM
[16] = second compound 0.316 µM, first compound 1 µM
[17] = second compound 0.316 µM, first compound 3.16 µM
[18] = second compound 0.316 µM, first compound 10 µM
[19] = second compound 1 µM, first compound 0.0316 µM
[20] = second compound 1 µM, first compound 0.1 µM
[21] = second compound 1 µM, first compound 0.316 µM
[22] = second compound 1 µM, first compound 1 µM
[23] = second compound 1 µM, first compound 3.16 µM
[24] = second compound 1 µM, first compound 10 µM
[25] = second compound 3.16 µM, first compound 0.0316 µM
[26] = second compound 3.16 µM, first compound 0.1 µM
[27] = second compound 3.16 µM, first compound 0.316 µM
[28] = second compound 3.16 µM, first compound 1 µM
[29] = second compound 3.16 µM, first compound 3.16 µM
[30] = second compound 3.16 µM, first compound 10 µM
[31] = second compound 10 µM, first compound 0.0316 µM
[32] = second compound 10 µM, first compound 0.1 µM
[33] = second compound 10 µM, first compound 0.316 µM
[34] = second compound 10 µM, first compound 1 µM
[35] = second compound 10 µM, first compound 3.16 µM
[36] = second compound 10 µM, first compound 10 µM
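Also: spheroids exposed to agents for seven days before readout.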
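For viability, T/C in this document: percent of vehicle DMSO control viability so 100% = untreated growth.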

IC50 (second compound 0.0316 µM): > 10000 nM | IC50 (second compound 0.1 µM): > 10000 nM | IC50 (second compound 0.316 µM): > 10000 nM | IC50 (second compound 1 µM): 4450 nM | IC50 (second compound 3.16 µM): < 31.6 nM | IC50 (second compound 10 µM): < 31.6 nM
SMILES: C#Cc1c(F)ccc2cc(O)cc(-c3ncc4c(N5CC6CCC(C5)N6)nc(OCC56CCCN5CC(F)C6)nc4c3F)c12 (stereo not given) + Cc1nc(NC(=O)N2CCCC2C(N)=O)sc1-c1ccnc(C(C)(C)C(F)(F)F)c1
viability, T/C [1]: 96.4% | viability, T/C [2]: 82.3% | viability, T/C [3]: 98.8% | viability, T/C [4]: 76.5% | viability, T/C [5]: 72.2% | viability, T/C [6]: 69.2% | viability, T/C [7]: 92.4% | viability, T/C [8]: 78.4% | viability, T/C [9]: 76.9% | viability, T/C [10]: 78% | viability, T/C [11]: 63.6% | viability, T/C [12]: 67.4% | viability, T/C [13]: 70.2% | viability, T/C [14]: 64.7% | viability, T/C [15]: 71.1% | viability, T/C [16]: 58.4% | viability, T/C [17]: 60.8% | viability, T/C [18]: 53.5% | viability, T/C [19]: 54.4% | viability, T/C [20]: 54.9% | viability, T/C [21]: 53.9% | viability, T/C [22]: 60.4% | viability, T/C [23]: 54.9% | viability, T/C [24]: 37.7% | viability, T/C [25]: 41.9% | viability, T/C [26]: 40.6% | viability, T/C [27]: 44.5% | viability, T/C [28]: 40.9% | viability, T/C [29]: 39.7% | viability, T/C [30]: 22% | viability, T/C [31]: 36.3% | viability, T/C [32]: 35.2% | viability, T/C [33]: 31.5% | viability, T/C [34]: 25% | viability, T/C [35]: 25.7% | viability, T/C [36]: 9.29%

IC50 (second compound 0.0316 µM): > 10000 nM | IC50 (second compound 0.1 µM): > 10000 nM | IC50 (second compound 0.316 µM): > 10000 nM | IC50 (second compound 1 µM): > 10000 nM | IC50 (second compound 3.16 µM): < 31.6 nM | IC50 (second compound 10 µM): < 31.6 nM
SMILES: C=CC(=O)N1CCN(c2nc(=O)n(-c3c(C)ccnc3C(C)C)c3nc(-c4c(O)cccc4F)c(F)cc23)C(C)C1 (stereo not given) + Cc1nc(NC(=O)N2CCCC2C(N)=O)sc1-c1ccnc(C(C)(C)C(F)(F)F)c1
viability, T/C [1]: 101% | viability, T/C [2]: 87.1% | viability, T/C [3]: 104% | viability, T/C [4]: 95.7% | viability, T/C [5]: 107% | viability, T/C [6]: 107% | viability, T/C [7]: 78.5% | viability, T/C [8]: 82.1% | viability, T/C [9]: 101% | viability, T/C [10]: 79.5% | viability, T/C [11]: 105% | viability, T/C [12]: 95.8% | viability, T/C [13]: 79.9% | viability, T/C [14]: 83.2% | viability, T/C [15]: 76% | viability, T/C [16]: 86.5% | viability, T/C [17]: 84.5% | viability, T/C [18]: 80.9% | viability, T/C [19]: 61.2% | viability, T/C [20]: 60.4% | viability, T/C [21]: 80.3% | viability, T/C [22]: 73% | viability, T/C [23]: 64.9% | viability, T/C [24]: 75.9% | viability, T/C [25]: 47.2% | viability, T/C [26]: 49.1% | viability, T/C [27]: 50.2% | viability, T/C [28]: 49.2% | viability, T/C [29]: 74% | viability, T/C [30]: 44.9% | viability, T/C [31]: 37.2% | viability, T/C [32]: 34.5% | viability, T/C [33]: 36.3% | viability, T/C [34]: 36.5% | viability, T/C [35]: 40.2% | viability, T/C [36]: 42.2%

IC50 (second compound 0.0316 µM): > 10000 nM | IC50 (second compound 0.1 µM): > 10000 nM | IC50 (second compound 0.316 µM): > 10000 nM | IC50 (second compound 1 µM): > 10000 nM | IC50 (second compound 3.16 µM): < 31.6 nM | IC50 (second compound 10 µM): < 31.6 nM
SMILES: CC(Cn1ccc(-c2ccc(C#N)c(Cl)c2)n1)NC(=O)c1cc(C(C)O)[nH]n1 (stereo not given) + Cc1nc(NC(=O)N2CCCC2C(N)=O)sc1-c1ccnc(C(C)(C)C(F)(F)F)c1
viability, T/C [1]: 76.5% | viability, T/C [2]: 75.4% | viability, T/C [3]: 96% | viability, T/C [4]: 85.9% | viability, T/C [5]: 94.3% | viability, T/C [6]: 71.5% | viability, T/C [7]: 99.7% | viability, T/C [8]: 85.1% | viability, T/C [9]: 80.8% | viability, T/C [10]: 85% | viability, T/C [11]: 86.2% | viability, T/C [12]: 81.5% | viability, T/C [13]: 65.4% | viability, T/C [14]: 70.9% | viability, T/C [15]: 72.6% | viability, T/C [16]: 74.5% | viability, T/C [17]: 100% | viability, T/C [18]: 64.7% | viability, T/C [19]: 53.4% | viability, T/C [20]: 58.3% | viability, T/C [21]: 55.5% | viability, T/C [22]: 60.8% | viability, T/C [23]: 54.7% | viability, T/C [24]: 53% | viability, T/C [25]: 46.5% | viability, T/C [26]: 48.2% | viability, T/C [27]: 44.5% | viability, T/C [28]: 55.3% | viability, T/C [29]: 40.8% | viability, T/C [30]: 42.9% | viability, T/C [31]: 34% | viability, T/C [32]: 37.3% | viability, T/C [33]: 39.2% | viability, T/C [34]: 37.3% | viability, T/C [35]: 34.2% | viability, T/C [36]: 31.1%

IC50 (second compound 0.0316 µM): 391 nM | IC50 (second compound 0.1 µM): 657 nM | IC50 (second compound 0.316 µM): 362 nM | IC50 (second compound 1 µM): 52.2 nM | IC50 (second compound 3.16 µM): < 31.6 nM | IC50 (second compound 10 µM): < 31.6 nM
SMILES: Cn1ncc(Cl)c1-c1cc(C(=O)NC(CN)Cc2cccc(F)c2)sc1Cl (stereo not given) + Cc1nc(NC(=O)N2CCCC2C(N)=O)sc1-c1ccnc(C(C)(C)C(F)(F)F)c1
viability, T/C [1]: 82.8% | viability, T/C [2]: 65% | viability, T/C [3]: 57.8% | viability, T/C [4]: 33.6% | viability, T/C [5]: 28.4% | viability, T/C [6]: 17.6% | viability, T/C [7]: 83.9% | viability, T/C [8]: 64% | viability, T/C [9]: 67.5% | viability, T/C [10]: 41.8% | viability, T/C [11]: 27.4% | viability, T/C [12]: 12.2% | viability, T/C [13]: 67.4% | viability, T/C [14]: 61.3% | viability, T/C [15]: 52.4% | viability, T/C [16]: 36.9% | viability, T/C [17]: 29.5% | viability, T/C [18]: 11.1% | viability, T/C [19]: 52% | viability, T/C [20]: 47.4% | viability, T/C [21]: 44.6% | viability, T/C [22]: 35.8% | viability, T/C [23]: 28.6% | viability, T/C [24]: 12% | viability, T/C [25]: 44.5% | viability, T/C [26]: 42.1% | viability, T/C [27]: 43.6% | viability, T/C [28]: 30.7% | viability, T/C [29]: 25.4% | viability, T/C [30]: 9.67% | viability, T/C [31]: 40.4% | viability, T/C [32]: 36.1% | viability, T/C [33]: 34.1% | viability, T/C [34]: 26.1% | viability, T/C [35]: 20.9% | viability, T/C [36]: 7.53%

IC50 (second compound 0.0316 µM): > 10000 nM | IC50 (second compound 0.1 µM): > 10000 nM | IC50 (second compound 0.316 µM): > 10000 nM | IC50 (second compound 1 µM): 7540 nM | IC50 (second compound 3.16 µM): < 31.6 nM | IC50 (second compound 10 µM): < 31.6 nM
SMILES: Cn1nccc1Nc1nccc(-c2ccn(C(CO)c3ccc(Cl)c(F)c3)c(=O)c2)n1 (stereo not given) + Cc1nc(NC(=O)N2CCCC2C(N)=O)sc1-c1ccnc(C(C)(C)C(F)(F)F)c1
viability, T/C [1]: 87% | viability, T/C [2]: 91% | viability, T/C [3]: 91% | viability, T/C [4]: 97.9% | viability, T/C [5]: 104% | viability, T/C [6]: 66% | viability, T/C [7]: 87.4% | viability, T/C [8]: 85.7% | viability, T/C [9]: 79.8% | viability, T/C [10]: 90.6% | viability, T/C [11]: 81.3% | viability, T/C [12]: 62.4% | viability, T/C [13]: 74.7% | viability, T/C [14]: 66.6% | viability, T/C [15]: 81.7% | viability, T/C [16]: 72.8% | viability, T/C [17]: 79.4% | viability, T/C [18]: 57.6% | viability, T/C [19]: 70.8% | viability, T/C [20]: 61.9% | viability, T/C [21]: 63.2% | viability, T/C [22]: 64.6% | viability, T/C [23]: 58% | viability, T/C [24]: 47.3% | viability, T/C [25]: 42.2% | viability, T/C [26]: 46.1% | viability, T/C [27]: 56.9% | viability, T/C [28]: 45% | viability, T/C [29]: 41.9% | viability, T/C [30]: 33.5% | viability, T/C [31]: 34.4% | viability, T/C [32]: 37.2% | viability, T/C [33]: 34.3% | viability, T/C [34]: 23.6% | viability, T/C [35]: 24.5% | viability, T/C [36]: 11.8%
